# Experiments:
# Assay type in all cases: in vitro ADME, Wistar rat
# [1] = test system: proximal ileum tissue samples; experiment: In vitro permeation of octreotide via proximal ileum tissue in diffusion chamber 500 under LITV pulses (FIG. 36); details: 18 Hz, 3 mA, 1 millisecond, at 7 minutes, vs non-stimulated control
# Description: (§1) The samples were analyzed for their content of octreotide by HPLC-UV 205 nm spectroscopy (Hewlett-Packard 1100). […] A 100×3 mm C18 column was used.
# [2] = test system: upper jejunum tissue segments; experiment: In vitro permeation of octreotide through rat upper jejunum in a diffusion chamber, with and without LITV pulses (FIG. 24); details: 12 Hz monophasic pulses, 1 millisecond, 3 mA, vs control chamber without electrical stimulation, 1 mg/ml donor, 90-minute period
# Description: The distance between electrode centers was 10 mm.
# [3] = test system: jejunal tissue samples (upper jejunum); experiment: In vitro permeation of octreotide via jejunal tissue in diffusion chamber 500 under LITV pulses (FIGS. 27-36); details: for octreotide permeation vs control group: FIG. 29; for permeation efficiency, effect of electrode material: FIG. 34
# Description: as §1
# [4] = test system: distal ileum tissue samples; experiment: In vitro permeation of octreotide via distal ileum tissue in diffusion chamber 500 under LITV pulses (FIG. 36); details: 18 Hz, 3 mA, 1 millisecond, at 7 minutes, vs non-stimulated control
# Description: as §1
smiles,measurement,setting,value
"C[C@@H](O)[C@@H]1NC(=O)[C@H](CCCCN)NC(=O)[C@@H](Cc2c[nH]c3ccccc23)NC(=O)[C@H](Cc2ccccc2)NC(=O)[C@@H](NC(=O)[C@H](N)Cc2ccccc2)CSSC[C@@H](C(=O)N[C@H](CO)[C@@H](C)O)NC1=O [octreotide, octreotide acetate]","permeation efficiency, effect of pulse application by intestinal region",[1],increased permeation efficiency
same,octreotide permeation into acceptor cell,[2],substantially greater increase in octreotide permeation
same,"permeation efficiency, effect of pulse cycle","[3]; 1 pulse per cycle among 1, 2, 3 pulses per cycle, 18 Hz, 3 mA, 1 millisecond, FIG. 31",greatest permeation efficiency
same,"transport enhancement ratio (ER), effect of pulse frequency","[3]; 18 Hz among 5, 12, 18, 24, 30, 60 Hz, 1 millisecond, 3 mA, at 30 minutes, FIG. 28",greatest enhancement ratio
same,"permeation efficiency, effect of cessation of pulse application","[3]; continuous application of pulses vs cessation after 10 minutes (n=1), 18 Hz, 3 mA, 1 millisecond, normalized to control group of FIG. 27, FIG. 35",substantially greater permeation efficiency
same,"magnitude of permeation efficiency, effect of electrode distance from jejunal tissue","[3]; electrode distance 0.5 mm (n=2) vs 3 mm (n=6), 18 Hz, 3 mA, 1 millisecond, at 15 minutes, FIG. 32",greater at 0.5 mm than at 3 mm
same,"permeation efficiency, effect of pulse application by intestinal region","[3]; jejunal tissue, 18 Hz, 3 mA, 1 millisecond, at 7 minutes, vs non-stimulated control, FIG. 36",greatest effect of pulse application
same,"permeation efficiency, trend with number of pulses per cycle","[3]; number of pulses per cycle increased from 1 to 2 to 3 (5-millisecond intervals), 18 Hz, 3 mA, 1 millisecond, FIG. 31",the permeation efficiency decreased
same,"transport enhancement ratio (ER), effect of pulse duration","[3]; pulse duration 1 millisecond among 0.2, 0.5, 1, 3 milliseconds, 18 Hz, 3 mA, at 15 minutes, FIG. 30",greatest enhancement ratio
same,octreotide permeation (permeation efficiency),"[3]; pulses 1 millisecond, 18 Hz, 3 mA (n=6) vs non-stimulated control group (n=3), FIG. 27",substantially enhanced octreotide permeation
same,octreotide permeation vs control group,"[3]; pulses at 5 Hz (n=1), 1 millisecond, 3 mA",did not yield a higher octreotide permeation
same,octreotide permeation vs control group,"[3]; pulses at 60 Hz (n=1), 1 millisecond, 3 mA",did not yield a higher octreotide permeation
same,"permeation efficiency, effect of electrode material","[3]; silver chloride (AgCl) electrodes (n=2), 18 Hz, 3 mA, 1 millisecond",did not increase permeation efficiency
same,"permeation efficiency, effect of electrode material","[3]; stainless steel (SS316L) electrodes (n=6), 18 Hz, 3 mA, 1 millisecond",substantially increased permeation efficiency
same,"permeation efficiency, effect of electrode material","[3]; titanium nitride (TN) electrodes (n=3), 18 Hz, 3 mA, 1 millisecond",did not increase permeation efficiency
same,"permeation efficiency, effect of electrode insulation","[3]; without divider 528, electrodes not insulated from each other (n=1), 18 Hz, 3 mA, 1 millisecond, FIG. 33",did not increase permeation efficiency
same,"permeation efficiency, effect of pulse application by intestinal region",[4],positive but less pronounced effect

# From patent US20080188837A1, “Local Delivery of Drugs or Substances Using Electronic Permeability Increase” (priority 2004, published 2008)
